Results: patent US10052320B2, “Substituted quinoxalines as FGFR kinase inhibitors” (ASTEX THERAPEUTICS LIMITED, priority 2011, dated 2018)

Columns and labels:
KDR (h) (VEGFR2) = KDR (h) (VEGFR2) (Homo sapiens, UniProt P35968); experiment: KDR (VEGFR2) (enzymatic assay), TR-FRET; type: biochemical
Outline: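 Low-ATP (3 μM) TR-FRET kinase assay using 500 nM Btn-Flt3 peptide and 150 ng/ml enzyme, run 2 h at room temperature with 6 mM MnCl2 and 0.1 mM Na3VO4. Signal from Eu-anti-P-Tyr/SA-XL-665 is recorded in RFU.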

[1] = biological target: T1, Ba/F3-Flt3-transfected cells (Homo sapiens, UniProt P36888, cells depend on it, form not given); experiment: Ba/F3-Flt3 (minus IL3) cellular proliferation assay, Alamar Blue; type: cell-based; conditions: minus IL3
T1 sequence (P36888 1-993): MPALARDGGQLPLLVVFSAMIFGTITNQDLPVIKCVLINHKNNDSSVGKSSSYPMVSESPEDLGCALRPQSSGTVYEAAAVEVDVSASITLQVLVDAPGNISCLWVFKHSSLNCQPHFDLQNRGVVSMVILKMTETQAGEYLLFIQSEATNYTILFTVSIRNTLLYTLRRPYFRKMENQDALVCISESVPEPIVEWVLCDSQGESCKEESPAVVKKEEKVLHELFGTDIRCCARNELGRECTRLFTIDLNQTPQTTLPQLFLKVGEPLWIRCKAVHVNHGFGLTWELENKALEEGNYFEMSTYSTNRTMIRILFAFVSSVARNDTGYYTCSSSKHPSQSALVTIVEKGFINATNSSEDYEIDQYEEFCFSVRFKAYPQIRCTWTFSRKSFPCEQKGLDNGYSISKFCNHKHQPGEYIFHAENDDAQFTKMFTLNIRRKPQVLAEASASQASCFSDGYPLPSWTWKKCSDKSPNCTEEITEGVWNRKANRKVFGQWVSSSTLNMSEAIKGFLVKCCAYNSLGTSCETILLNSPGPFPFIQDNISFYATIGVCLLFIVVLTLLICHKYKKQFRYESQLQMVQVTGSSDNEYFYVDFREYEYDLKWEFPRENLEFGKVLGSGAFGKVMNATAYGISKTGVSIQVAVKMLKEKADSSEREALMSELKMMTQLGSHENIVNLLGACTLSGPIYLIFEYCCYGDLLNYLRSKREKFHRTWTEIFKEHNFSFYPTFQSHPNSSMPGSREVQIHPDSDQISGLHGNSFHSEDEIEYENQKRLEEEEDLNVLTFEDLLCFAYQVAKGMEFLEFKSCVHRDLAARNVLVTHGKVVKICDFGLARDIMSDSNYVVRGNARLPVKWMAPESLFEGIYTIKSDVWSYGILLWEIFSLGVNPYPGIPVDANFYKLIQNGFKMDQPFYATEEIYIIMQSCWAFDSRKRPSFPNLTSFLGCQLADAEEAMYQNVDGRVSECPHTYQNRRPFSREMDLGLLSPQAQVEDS

[2] = biological target: Ba/F3-FGFR4-transfected cells (Homo sapiens, UniProt P22455); experiment: Ba/F3-FGFR4 cellular proliferation assay, Alamar Blue; type: cell-based
Outline: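 Alamar Blue fluorescence (540/590 nm, 4 h development) measured growth of FGFR4-transfected Ba/F3 cells after 24 h compound treatment at 37° C. Cells were seeded at 20000/well in RPMI-1640, 10% FBS.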

FGFR2 (h) = FGFR2 (h) (Homo sapiens, UniProt P21802); experiment: FGFR2 (enzymatic assay), TR-FRET; type: biochemical; conditions: read-out: FGFR 2 pIC50 (converted)
Method: In a final reaction volume of 30 μL, FGFR2 (h) (150 ng/ml) was incubated with 50 mM HEPES pH 7.5, 6 mM MnCl2, 1 mM DTT, 0.1 mM Na3VO4, 0.01% Triton-X-100, 500 nM Btn-Flt3 and 0.4 μM ATP in the presence of compound (1% DMSO final). […] Time-Resolved Fluorescence Resonance Energy Transfer (TR-FRET) signal (ex340 nm. Em 620 nm, em 655 nm) was measured afterwards and results are expressed in (Relative Fluorescence Units).

FGFR3 (h) = FGFR3 (h) (Homo sapiens, UniProt P22607); experiment: FGFR3 (enzymatic assay), TR-FRET; type: biochemical; conditions: read-out: FGFR 3 pIC50 (converted)
Method: In a final reaction volume of 30 μL, FGFR3 (h) (40 ng/ml) was incubated with 50 mM HEPES pH 7.5, 6 mM MnCl2, 1 mM DTT, 0.1 mM Na3VO4, 0.01% Triton-X-100, 500 nM Btn-Flt3 and 25 μM ATP in the presence of compound (1% DMSO final). […] Time-Resolved Fluorescence Resonance Energy Transfer (TR-FRET) signal (ex340 nm. Em 620 nm, em 655 nm) was measured afterwards and results are expressed in RFU (Relative Fluorescence Units).

Ba/F3-FGFR4-transfected cells, sequence (P22455 whole entry, change not shown): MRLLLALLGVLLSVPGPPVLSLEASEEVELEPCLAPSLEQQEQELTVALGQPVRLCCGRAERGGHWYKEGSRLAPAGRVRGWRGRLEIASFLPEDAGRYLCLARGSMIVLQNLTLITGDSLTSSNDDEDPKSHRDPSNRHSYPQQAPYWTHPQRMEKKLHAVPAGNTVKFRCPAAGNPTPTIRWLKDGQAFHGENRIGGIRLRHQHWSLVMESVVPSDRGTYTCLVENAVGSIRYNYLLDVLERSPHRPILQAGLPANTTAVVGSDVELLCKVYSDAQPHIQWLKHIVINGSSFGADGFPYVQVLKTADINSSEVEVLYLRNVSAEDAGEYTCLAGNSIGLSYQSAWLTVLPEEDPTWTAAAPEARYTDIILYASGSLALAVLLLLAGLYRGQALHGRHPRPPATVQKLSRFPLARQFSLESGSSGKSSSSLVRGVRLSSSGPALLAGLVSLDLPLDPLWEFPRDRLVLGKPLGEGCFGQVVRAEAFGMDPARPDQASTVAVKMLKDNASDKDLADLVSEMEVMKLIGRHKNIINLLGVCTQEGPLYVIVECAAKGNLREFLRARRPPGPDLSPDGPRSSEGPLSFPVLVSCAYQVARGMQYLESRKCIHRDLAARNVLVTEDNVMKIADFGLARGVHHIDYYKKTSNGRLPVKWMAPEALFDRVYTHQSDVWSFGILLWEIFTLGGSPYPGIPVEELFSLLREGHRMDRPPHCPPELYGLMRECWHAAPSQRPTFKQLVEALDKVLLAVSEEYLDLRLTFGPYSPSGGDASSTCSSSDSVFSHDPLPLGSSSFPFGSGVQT
FGFR2 (h), sequence (P21802 22-821): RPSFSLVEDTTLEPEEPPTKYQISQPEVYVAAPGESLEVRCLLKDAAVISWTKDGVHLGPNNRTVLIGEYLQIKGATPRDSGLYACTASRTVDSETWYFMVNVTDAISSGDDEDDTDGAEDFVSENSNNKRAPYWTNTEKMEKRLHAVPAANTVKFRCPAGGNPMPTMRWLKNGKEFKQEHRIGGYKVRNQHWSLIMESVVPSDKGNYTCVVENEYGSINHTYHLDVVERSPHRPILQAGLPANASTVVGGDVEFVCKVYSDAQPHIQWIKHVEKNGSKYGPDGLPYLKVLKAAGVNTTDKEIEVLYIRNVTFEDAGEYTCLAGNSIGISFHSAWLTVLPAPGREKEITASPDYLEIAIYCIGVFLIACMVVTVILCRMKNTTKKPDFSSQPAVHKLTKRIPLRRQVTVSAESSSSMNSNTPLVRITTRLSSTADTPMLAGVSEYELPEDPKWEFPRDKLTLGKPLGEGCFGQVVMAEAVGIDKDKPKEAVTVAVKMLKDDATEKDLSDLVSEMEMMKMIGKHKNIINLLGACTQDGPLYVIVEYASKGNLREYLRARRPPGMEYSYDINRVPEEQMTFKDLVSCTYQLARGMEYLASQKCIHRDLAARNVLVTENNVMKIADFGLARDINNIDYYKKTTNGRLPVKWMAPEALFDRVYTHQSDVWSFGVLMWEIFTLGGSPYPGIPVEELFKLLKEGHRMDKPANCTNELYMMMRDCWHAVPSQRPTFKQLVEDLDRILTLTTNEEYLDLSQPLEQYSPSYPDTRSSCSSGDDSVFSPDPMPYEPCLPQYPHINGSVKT
FGFR3 (h), sequence (P22607 23-806): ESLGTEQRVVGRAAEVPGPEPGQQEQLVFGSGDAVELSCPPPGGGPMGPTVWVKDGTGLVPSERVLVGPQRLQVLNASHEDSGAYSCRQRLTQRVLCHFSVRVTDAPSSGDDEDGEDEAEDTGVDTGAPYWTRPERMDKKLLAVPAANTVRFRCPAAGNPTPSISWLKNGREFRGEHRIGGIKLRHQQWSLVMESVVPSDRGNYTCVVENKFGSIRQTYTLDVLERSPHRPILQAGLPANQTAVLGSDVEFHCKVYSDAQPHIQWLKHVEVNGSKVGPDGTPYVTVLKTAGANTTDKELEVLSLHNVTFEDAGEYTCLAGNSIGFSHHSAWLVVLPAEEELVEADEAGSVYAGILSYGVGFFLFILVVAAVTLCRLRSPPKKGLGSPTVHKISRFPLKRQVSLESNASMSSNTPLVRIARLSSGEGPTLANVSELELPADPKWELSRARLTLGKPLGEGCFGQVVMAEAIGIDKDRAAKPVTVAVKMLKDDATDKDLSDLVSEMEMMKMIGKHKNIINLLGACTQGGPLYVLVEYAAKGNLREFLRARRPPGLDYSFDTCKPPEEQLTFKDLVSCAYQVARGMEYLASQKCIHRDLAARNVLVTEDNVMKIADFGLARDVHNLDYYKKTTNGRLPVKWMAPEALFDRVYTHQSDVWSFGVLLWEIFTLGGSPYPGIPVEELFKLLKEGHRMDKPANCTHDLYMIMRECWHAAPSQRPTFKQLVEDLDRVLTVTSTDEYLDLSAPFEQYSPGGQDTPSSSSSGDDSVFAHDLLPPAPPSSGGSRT
KDR (h) (VEGFR2), sequence (P35968 20-1356): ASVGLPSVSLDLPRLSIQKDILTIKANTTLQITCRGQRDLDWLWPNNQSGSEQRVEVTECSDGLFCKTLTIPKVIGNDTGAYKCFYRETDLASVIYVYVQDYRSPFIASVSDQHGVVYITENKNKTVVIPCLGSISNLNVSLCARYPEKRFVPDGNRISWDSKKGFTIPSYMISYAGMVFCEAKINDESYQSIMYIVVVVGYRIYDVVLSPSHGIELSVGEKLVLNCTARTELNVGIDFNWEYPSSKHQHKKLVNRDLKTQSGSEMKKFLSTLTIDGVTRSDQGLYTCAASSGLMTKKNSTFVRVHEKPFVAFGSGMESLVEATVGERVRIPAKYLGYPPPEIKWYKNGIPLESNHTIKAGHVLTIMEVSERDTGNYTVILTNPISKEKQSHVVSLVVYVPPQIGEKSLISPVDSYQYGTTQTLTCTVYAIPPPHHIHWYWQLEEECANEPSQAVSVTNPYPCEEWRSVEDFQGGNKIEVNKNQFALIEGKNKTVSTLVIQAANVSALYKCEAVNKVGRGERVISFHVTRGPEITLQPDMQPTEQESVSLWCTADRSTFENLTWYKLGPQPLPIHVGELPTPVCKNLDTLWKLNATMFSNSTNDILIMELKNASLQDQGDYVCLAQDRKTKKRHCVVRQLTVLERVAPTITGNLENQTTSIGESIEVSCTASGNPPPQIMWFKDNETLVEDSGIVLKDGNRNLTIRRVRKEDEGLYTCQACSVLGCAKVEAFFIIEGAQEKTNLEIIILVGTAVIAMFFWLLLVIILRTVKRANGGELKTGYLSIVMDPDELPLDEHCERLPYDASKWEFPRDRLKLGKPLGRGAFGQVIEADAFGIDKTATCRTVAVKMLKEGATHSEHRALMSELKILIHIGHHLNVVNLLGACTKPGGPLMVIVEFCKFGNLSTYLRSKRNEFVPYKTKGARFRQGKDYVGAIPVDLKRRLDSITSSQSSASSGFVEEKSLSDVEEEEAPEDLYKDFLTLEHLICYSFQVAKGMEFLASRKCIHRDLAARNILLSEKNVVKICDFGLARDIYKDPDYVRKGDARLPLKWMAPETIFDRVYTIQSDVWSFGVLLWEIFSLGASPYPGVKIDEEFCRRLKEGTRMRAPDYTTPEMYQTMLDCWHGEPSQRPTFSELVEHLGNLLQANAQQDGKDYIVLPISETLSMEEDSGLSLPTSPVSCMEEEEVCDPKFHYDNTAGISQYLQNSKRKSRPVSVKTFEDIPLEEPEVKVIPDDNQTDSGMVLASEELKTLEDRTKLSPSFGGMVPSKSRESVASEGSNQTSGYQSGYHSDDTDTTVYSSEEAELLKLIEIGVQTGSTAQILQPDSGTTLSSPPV

Compound | IC50 (KDR (h) (VEGFR2)) [µM] | BAF3-FLT3 (MIN IL3) 384 well pIC50 [1] | BAF3-FGFR4 pIC50 [2] | IC50 (FGFR2 (h)) [µM] | IC50 (FGFR3 (h)) [µM]
COc1cc(OC)cc(N(CCN2CCOCC2)c2ccc3ncc(-c4ccc(N)nc4)nc3c2)c1 [Compound 169] | 0.126 | <5 | 6.0 | 0.0158 | 0.00646
COc1cc(OC)cc(N(CCNC(C)C)c2ccc3ncc(-c4ccc(N5CCN(C)CC5)nc4)nc3c2)c1 [Compound 170] | 0.135 | 5.47 | 6.2 | 0.00398 | 0.00617
COc1cc(OC)cc(N(CCO)c2ccc3ncc(/C(C)=N/OC(C)(C)C)nc3c2)c1 [Compound 171] | > 1 | <5 | <5 | 0.724 | 0.501
COC(=O)C1CCCN1c1cnc2ccc(N(CCO)c3cc(OC)cc(OC)c3)cc2n1 (stereo not shown) [Compound 172] | > 1 | 5.19 | 5.1 | 0.145 | 0.0871
COc1cc(OC)cc(N(CCO)c2ccc3ncc(C4=CCN(C(=O)OC(C)(C)C)C4)nc3c2)c1 [Compound 173] | 0.479 | <5 | 5.6 | 0.0324 | 0.0102
COc1cc(OC)cc(N(CCO)c2ccc3ncc(C4=CCN(C(=O)OC(C)(C)C)CC4)nc3c2)c1 [Compound 178] | > 1 | <5 | 5.9 | 0.0123 | 0.00288
COc1cc(OC)cc(N(CCNC(C)C)c2ccc3ncc(C(=O)N4CCN(C)CC4)nc3c2)c1 [Compound 179] | 0.0776 | <5 | <5 | 0.427 | 0.38

Continued, values first:

IC50 (KDR (h) (VEGFR2)) [µM] | BAF3-FLT3 (MIN IL3) 384 well pIC50 [1] | BAF3-FGFR4 pIC50 [2] | IC50 (FGFR2 (h)) [µM] | IC50 (FGFR3 (h)) [µM] | Compound
0.191 | <5 | 5.2 | 0.302 | 0.263 | COc1cc(OC)cc(N(CCNC(C)C)c2ccc3ncc(C(=O)N4CCCCC4)nc3c2)c1 [Compound 180]
> 1 | <5 | <5 | 0.49 | 0.501 | COc1cc(OC)cc(N(CCNC(C)C)c2ccc3ncc(C(=O)N4CCOCC4)nc3c2)c1 [Compound 181]
0.112 | <5 | 5.7 | 0.0263 | 0.126 | COc1cc(OC)cc(N(CCNC(C)C)c2ccc3ncc(C(=O)NCCCN4CCCCC4)nc3c2)c1 [Compound 182]
> 1 | 5.04 | ~6.5 | 0.0813 | 0.162 | COc1cc(OC)cc(N(CC#Cc2ncccc2OC)c2ccc3ncc(-c4cccnc4)nc3c2)c1 [Compound 183]
> 1 | <5 | 5.1 | 0.155 | 0.11 | COc1cc(OC)cc(N(CCO)c2ccc3ncc(C(=O)Nc4cnn(C)c4)nc3c2)c1 [Compound 184]
> 1 | <5 | <5 | 0.214 | 0.11 | COc1cc(OC)cc(N(CCO)c2ccc3ncc(C4CCN(C(=O)OC(C)(C)C)CC4)nc3c2)c1 [Compound 185]
0.871 | <5 | 5.57 | 0.0363 | 0.0162 | COc1cc(OC)cc(N(CCCO)c2ccc3ncc(-c4ccnc(C(=O)NCCOCCO)c4)nc3c2)c1 [Compound 186]
